In patent publication US20230100838A1 (Revolution Medicines, Inc., priority 2019, published 2023):

Tests used:
Assay type in all cases: binding
K-Ras G12S = K-Ras G12S (Homo sapiens, UniProt P01116, G12S); assay: K-Ras G12S cross-linking assay (comparable procedure, conjugate formation, TOF mass spectrometry); set-up: key: 0: No observed x-linking
Method: (§1) Protocol: K-Ras G12D(GDP) Cross-Linking Assay
(§2) Note: while the following protocol outlines the procedure for K-Ras G12D(GDP), a person of skill in the art may substitute other Ras proteins, and may also substitute a non-hydrolyzable GTP analog for GDP to study GTP bound Ras protein.
(§3) GDP-loaded K-Ras (1-169) G12D, C51S, C80L, C118S and GDP-loaded K-Ras (1-169) C51S, C80L, C118S were adjusted to 50 μM in K-Ras assay buffer (12.5 mM HEPES, 75 mM NaCl and 1 mM MgCl2 at pH 7.4). A 5 μL aliquot of each protein solution was added to each well of a 96-well microplate containing 40 μL of assay buffer. Initial compound stocks were prepared in DMSO at 100 times their final assay concentration. Compounds were then diluted 10-fold into K-Ras assay buffer to 10 times their final concentration. A 5 μL aliquot of each diluted compound solution was added to each protein solution in the 96-well microplate to initiate the reaction, which then proceeded at room temperature. Typical final compound concentrations were 2, 10, and 25 μM. At each time point, the reactions were analyzed immediately or quenched with 5 μL of a 5% formic acid solution and kept at 4° C. until analysis. Typical assay endpoints were 1 and 24 h.
(§4) Data collection took place on an Agilent 6230 TOF Mass Spectrometer. Complete reactions were injected onto a C4 reverse-phase column to separate protein from buffer components prior to entering the mass spectrometer. The proteins were eluted from the column by increasing acetonitrile fraction in the mobile phase and fed directly into the mass analyzer. Initial analysis of raw data took place in Agilent MassHunter BioConfirm software and consisted of deconvolution of multiple protein charge states with the maximum entropy algorithm, with a mass step of 1 Da. The heights of all deconvoluted protein masses were exported for further data analysis. The percent modification of each protein was then determined by calculating the peak height of the covalently modified K-Ras species as a percentage of the sum total of K-Ras protein peak height.

[1] = target: T1, GDP-loaded K-Ras (1-169) C51S, C80L, C118S (Homo sapiens, UniProt P01116, C118S/C51S/C80L); assay: K-Ras WT (GDP) cross-linking assay (conjugate formation, TOF mass spectrometry); set-up: key: 0: No observed x-linking; +: 0 < x ≤ 20; ++: 20 < x ≤ 40; +++: 40 < x ≤ 100; settings: percent covalently modified K-Ras by MS, room temperature, typical compound conc. 2, 10, 25 μM, endpoints 1 and 24 h
T1 construct: GDP-loaded K-Ras (1-169) C51S, C80L, C118S
Method: as §1, §2, §3, §4

[2] = target: T2, GDP-loaded K-Ras (1-169) G12D, C51S, C80L, C118S (Homo sapiens, UniProt P01116, C118S/C51S/C80L/G12D); assay: K-Ras G12D(GDP) cross-linking assay (conjugate formation, TOF mass spectrometry); set-up: key: 0: No observed x-linking; +: 0 < x ≤ 20; ++: 20 < x ≤ 40; +++: 40 < x ≤ 100; settings: percent covalently modified K-Ras by MS, room temperature, typical compound conc. 2, 10, 25 μM, endpoints 1 and 24 h
T2 construct: GDP-loaded K-Ras (1-169) G12D, C51S, C80L, C118S
Method: as §1, §2, §3, §4

[3] = Table 4, percent covalently modified K-Ras by MS

G12S x-linking (%) (K-Ras G12S; [3]) | WT x-linking (%) ([1]; Table 4) | G12D x-linking (%) ([2]; Table 4) | Structure (SMILES) | G12S x-linking (%) (K-Ras G12S; Table 5, percent covalently modified K-Ras by MS) | WT x-linking (%) ([1]; Table 5) | G12D x-linking (%) ([2]; Table 5)
+ (0 < x ≤ 10) | + (0 < x ≤ 20) | + (0 < x ≤ 20) | Fc1ccccc1-c1c(Cl)cc2c(N3CCC(N=C=NCc4ccccc4)CC3)ncnc2c1F [Example 1, N-benzyl-N-(1-(6-chloro-8-fluoro-7-(2-fluorophenyl)quinazolin-4-yl)piperidin-4-yl)methanediimine] | – | – | –
+ (0 < x ≤ 10) | + (0 < x ≤ 20) | + (0 < x ≤ 20) | CC(C)N=C=NC1CCN(c2ncnc3c(F)c(-c4ccccc4F)c(Cl)cc23)CC1 [Example 3] | – | – | –
– | – | – | Cc1cccc2cccc(N3CCc4c(nc(OC[C@@H]5CCCN5C)nc4N4CCN(C(=O)[C@@H]5CN5)[C@@H](CC#N)C4)C3)c12 [Example 64, 2-((S)-1-((S)-aziridine-2-carbonyl)-4-(7-(8-methylnaphthalen-1-yl)-2-(((S)-1-methylpyrrolidin-2-yl)methoxy)-5,6,7,8-tetrahydropyrido[3,4-d]pyrimidin-4-yl)piperazin-2-yl)acetonitrile] | + (0 < x ≤ 10) | + (0 < x ≤ 20) | + (0 < x ≤ 20)
+ (0 < x ≤ 10) | + (0 < x ≤ 20) | + (0 < x ≤ 20) | Cc1cccc2cccc(N3CCc4c(nc(OC[C@@H]5CCCN5C)nc4N4CCC(C(O)(O)C(F)(F)F)CC4)C3)c12 [Example 51, (S)-2,2,2-trifluoro-1-(1-(7-(8-methylnaphthalen-1-yl)-2-((1-methylpyrrolidin-2-yl)methoxy)-5,6,7,8-tetrahydropyrido[3,4-d]pyrimidin-4-yl)piperidin-4-yl)ethane-1,1-diol] | – | – | –
0 | 0 | 0 | Cc1cccc2cccc(N3CCc4c(nc(OC[C@@H]5CCCN5C)nc4NCCN(C)C4=NCCO4)C3)c12 [Example 41, (S)—N^1-(4,5-dihydrooxazol-2-yl)-N^1-methyl-N^2-(7-(8-methylnaphthalen-1-yl)-2-((1-methylpyrrolidin-2-yl)methoxy)-5,6,7,8-tetrahydropyrido[3,4-d]pyrimidin-4-yl)ethane-1,2-diamine] | – | – | –
+ (0 < x ≤ 10) | + (0 < x ≤ 20) | + (0 < x ≤ 20) | Cc1cccc2cccc(N3CCc4c(nc(OC[C@@H]5CCCN5C)nc4N4CCC(B(O)O)CC4)C3)c12 [Example 52, (S)-(1-(7-(8-methylnaphthalen-1-yl)-2-((1-methylpyrrolidin-2-yl)methoxy)-5,6,7,8-tetrahydropyrido[3,4-d]pyrimidin-4-yl)piperidin-4-yl)boronic Acid] | – | – | –
+ (0 < x ≤ 10) | + (0 < x ≤ 20) | + (0 < x ≤ 20) | COc1ccc(CN=C=NC2CCN(c3nc(OC[C@@H]4CCCN4C)nc4c3CCN(c3cccc5cccc(C)c35)C4)CC2)cc1 [Example 50, N-(4-methoxybenzyl)-N-(1-(7-(8-methylnaphthalen-1-yl)-2-(((S)-1-methylpyrrolidin-2-yl)methoxy)-5,6,7,8-tetrahydropyrido[3,4-d]pyrimidin-4-yl)piperidin-4-yl)methanediimine] | – | – | –
++ (10 < x ≤ 100) | ++ (20 < x ≤ 100) | +++ (40 < x ≤ 100) | COCCCN=C=NC1CCN(c2nc(OC[C@@H]3CCCN3C)nc3c2CCN(c2cccc4cccc(C)c24)C3)CC1 [Example 25, N-(3-methoxypropyl)-N-(1-(7-(8-methylnaphthalen-1-yl)-2-(((S)-1-methylpyrrolidin-2-yl)methoxy)-5,6,7,8-tetrahydropyrido[3,4-d]pyrimidin-4-yl)piperidin-4-yl)methanediimine] | – | – | –
– | – | – | Cc1ccnc(C(C)C)c1-n1c(=O)nc(N2C[C@@H](C)N(C(=O)[C@H]3CN3)C[C@@H]2C)c2cc(F)c(-c3c(O)cccc3F)nc21 [Example 138] | – | 0 | 0
– | – | – | Cc1ccnc(C(C)C)c1-n1c(=O)nc(N2C[C@H](C)N(C(=O)[C@@H]3CN3)C[C@H]2C)c2cc(F)c(-c3c(O)cccc3F)nc21 [Example 144] | – | 0 | 0
– | – | – | COCC1(N=C=N[C@H]2C[C@H](Nc3nc(OC[C@@H]4CCCN4C)nc4c3CCN(c3cccc5cccc(C)c35)C4)C2)CC1 [Example 152] | – | + (0 < x ≤ 20) | +++ (40 < x ≤ 100)
– | – | – | COc1ccccc1CN=C=N[C@H]1C[C@H](Nc2nc(OC[C@@H]3CCCN3C)nc3c2CCN(c2cccc4cccc(C)c24)C3)C1 [Example 104, N-((1R,3S)-3-((((2-methoxybenzyl)imino)methylene)amino)cyclobutyl)-7-(8-methylnaphthalen-1-yl)-2-(((S)-1-methylpyrrolidin-2-yl)methoxy)-5,6,7,8-tetrahydropyrido[3,4-d]pyrimidin-4-amine] | – | + (0 < x ≤ 20) | + (0 < x ≤ 20)
– | – | – | Cc1cccc2cccc(N3CCc4c(nc(OC[C@@H]5CCCN5C)nc4N4CC[C@@H](NC(=O)[C@@H]5CN5)[C@@H](CC#N)C4)C3)c12 [Example 128] | – | + (0 < x ≤ 20) | + (0 < x ≤ 20)
– | – | – | Cc1ccnc(C(C)C)c1-n1c(=O)nc(N2[C@H](C)CN(C(=O)[C@@H]3CN3)C[C@H]2C)c2cc(F)c(-c3c(O)cccc3F)nc21 [Example 142] | – | + (0 < x ≤ 20) | + (0 < x ≤ 20)
– | – | – | Cc1ccnc(C(C)C)c1-n1c(=O)nc(N2C[C@H](C)N(C(=O)[C@H]3CN3)C[C@H]2C)c2cc(F)c(-c3c(O)cccc3F)nc21 [Example 139] | – | 0 | 0
– | – | – | Cc1cccc2cccc(N3CCc4c(nc(OC[C@@H]5CCCN5C)nc4N4CC[C@H](NC(=O)[C@@H]5CN5)[C@@H](CC#N)C4)C3)c12 [Example 127] | – | + (0 < x ≤ 20) | + (0 < x ≤ 20)
– | – | – | Cc1ccnc(C(C)C)c1-n1c(=O)nc(N2[C@H](C)CN(C(=O)[C@H]3CN3)C[C@H]2C)c2cc(F)c(-c3c(O)cccc3F)nc21 [Example 137] | – | 0 | 0
– | – | – | COC1CC1N=C=NC1CCN(c2nc(OC[C@@H]3CCCN3C)nc3c2CCN(c2cccc4cccc(C)c24)C3)CC1 (some centres unmarked) [Example 151] | – | + (0 < x ≤ 20) | +++ (40 < x ≤ 100)
– | – | – | COC(=O)[C@@H]1CN1C(=O)N1CCN(c2nc(OC[C@@H]3CCCN3C)nc3c2CCN(c2cccc4cccc(C)c24)C3)C[C@@H]1CC#N [Example 109, methyl (S)-1-((S)-2-(cyanomethyl)-4-(7-(8-methylnaphthalen-1-yl)-2-(((S)-1-methylpyrrolidin-2-yl)methoxy)-5,6,7,8-tetrahydropyrido[3,4-d]pyrimidin-4-yl)piperazine-1-carbonyl)aziridine-2-carboxylate] | – | + (0 < x ≤ 20) | + (0 < x ≤ 20)
– | – | – | Cc1cccc2cccc(N3CCc4c(nc(OC[C@@H]5CCCN5C)nc4N4CCN(C[C@@H]5CN5)[C@@H](CC#N)C4)C3)c12 [Example 101, 2-((S)-1-(((S)-aziridin-2-yl)methyl)-4-(7-(8-methylnaphthalen-1-yl)-2-(((S)-1-methylpyrrolidin-2-yl)methoxy)-5,6,7,8-tetrahydropyrido[3,4-d]pyrimidin-4-yl)piperazin-2-yl)acetonitrile] | – | + (0 < x ≤ 20) | + (0 < x ≤ 20)
– | – | – | Cc1ccc2[nH]ncc2c1N1CCc2c(nc(OC[C@@H]3CCCN3C)nc2N2CCN(C(=O)[C@H]3CN3)[C@@H](CC#N)C2)C1 [Example 110, 2-((S)-1-((R)-aziridine-2-carbonyl)-4-(7-(5-methyl-1H-indazol-4-yl)-2-(((S)-1-methylpyrrolidin-2-yl)methoxy)-5,6,7,8-tetrahydropyrido[3,4-d]pyrimidin-4-yl)piperazin-2-yl)acetonitrile] | – | + (0 < x ≤ 20) | + (0 < x ≤ 20)
